Source: paper PMC11672292, “Discovery of Balasubramide Derivative with Tissue‐Specific Anti‐Inflammatory Activity Against Acute Lung Injury by Targeting VDAC1” (Advanced Science, 2024)
Read-outs that look alike come from different tables or passages of the source.

Columns and labels:
[1] = Pharmacokinetics and tissue distribution after single intravenous administration; format: in vivo, mouse; settings: mice; for half-life: read-out: t1/2 (converted)
Experimental: Pharmacokinetic studies were performed as previously described.^[ [63] ^] Briefly, ICR mice were fasted without water for 16 h before drug administration and allowed access to food and water freely after administration. After given a single intravenous administration of (+)3C‐20 (10 mg kg^−1), mice were anesthetized with isoflurane, and blood samples were collected through jugular vein at different time points (0, 0.083, 0.25, 0.5, 1, 2, 4, 6, 8, 24 h), as well as at different time points (0.5, 2, 6, 24 h) mice were euthanized and brain, heart, liver, spleen, lung, and kidney were collected. Blood samples were collected in tubes containing sodium heparin and centrifuged at 5000 rpm at 4 °C for 10 min to prepare plasma, tissues were cleaned in prechilled saline and homogenized to be tested, and all samples were stored at […]. LC‐MS/MS was performed to determine the concentrations of (+)3C‐20 in the plasma and tissues of the mice and to calculate the related pharmacokinetic parameters, which were then used to investigate the pharmacokinetic characteristics and tissue distribution of (+)3C‐20 in mice.

[2] = tested on: BMDMs; assay: Cytosolic mtDNA measurement (qPCR) in BMDMs; format: cell-based, mouse; settings: 10 µM
Experimental: BMDMs were stimulated and treated with 10 µM (+)3C‐20 as indicated. Cytosolic mtDNA collection was carried out as previously described.^[ [25] ^] Briefly, BMDMs were washed twice with PBS, harvested, and resuspended in 200 µL mitochondria isolation reagent (Beyotime, C3601) with protease and phosphatase inhibitor cocktail. Cell resuspension was triturated with a glass homogenizer and centrifuged at 11 000 × g for 10 min at 4 °C to pelleted down mitochondria and cell membrane, and the remaining supernatant contained the cytosolic mtDNA that were measured. After DNA purification from the supernatant with FastPure Cell DNA Isolation Mini Kit (DC102‐01, Vazyme, China) according to the manufacturer's instruction, qPCR was performed using specific mtDNA primers (D‐loop, D‐loop1, D‐loop2, D‐loop3).

[3] = tested on: PBMCs from ALI patients; assay: Cytosolic mtDNA release in LPS-stimulated PBMCs from ALI patients; format: cell-based, human; settings: 10 µM
Experimental: PBMCs isolation and stimulation were performed as previously described.^[ [40], [66] ^] Anticoagulated whole blood diluted equally with PBS was added to a 15 mL sterile centrifuge tube containing lymphocyte separation solution (#C0025, Beyotime, China), and centrifuged for 10 min at 2500 rpm. The layer of PBMCs at the plasma‐density gradient medium interface was transferred to a new sterile tube, dispersed with 10 mL DMEM, and centrifuged for 5 min at 800 rpm. The mononuclear cells at the bottom of the tube were resuspended in DMEM with 10% FBS at 5 × 10^5 cells/well in 24‐well plates. After discarding the supernatant, the PBMCs were incubated with DMSO or 10 µM (+)3C‐20 for 3 h in DMEM, stimulated with 100 ng mL^−1 LPS for another 3 h, and lysed with TRIzol reagent for total RNA extraction and following indicated experiments.

[4] = ICR, mouse, iv, single i.v. 10 mg/kg, Plasma
[5] = ICR, mouse, iv, single i.v. 10 mg/kg, Spleen
[6] = ICR, mouse, kidney, iv, single i.v. 10 mg/kg, read-out: Concentration of (+)3C-20, Kidney
[7] = ICR, mouse, liver, iv, single i.v. 10 mg/kg, read-out: Concentration of (+)3C-20, Liver
[8] = ICR, mouse, lung, iv, single i.v. 10 mg/kg, read-out: Concentration of (+)3C-20, Lung
[9] = ICR, mouse, spleen, iv, single i.v. 10 mg/kg, read-out: Concentration of (+)3C-20, Spleen

O=C(CCc1ccc(C(F)(F)F)cc1)O[C@@H]1C(=O)NCCc2c([nH]c3ccccc23)[C@H]1c1ccc(C(F)(F)F)cc1 [(+)3C-20]
Cmax [1, 4]: 4010 ng/mL
clearance [1, 4]: 35.2 mL/min/kg
k el [1, 4]: 3.97e-05 s⁻¹
Vd ([1]; ICR, mouse, iv, single i.v. 10 mg/kg, Plasma, read-out: VdSS): 6.1 L/kg
half-life [1, 4]: 4.88 h
AUC(0-inf) [1, 5]: 9840 ng·h/mL
AUC(0-t) [1, 5]: 9560 ng·h/mL
C0 [1, 5]: 6800 ng/mL
Cmax [1, 5]: 4370 ng/mL
k el [1, 5]: 0.000161 s⁻¹
Kp ([1]; ICR, mouse, iv, single i.v. 10 mg/kg, Spleen, read-out: Tissues/plasma ratio): 2.24
half-life [1, 5]: 1.2 h
concentration at 0.5 h [1, 6]: 5010 ± 516 ng/g
concentration at 2 h [1, 6]: 2840 ± 692 ng/g
concentration at 6 h [1, 6]: 299 ± 25.1 ng/g
concentration at 0.5 h [1, 7]: 4370 ± 1010 ng/g
concentration at 2 h [1, 7]: 1160 ± 434 ng/g
concentration at 6 h [1, 7]: 159 ± 51.7 ng/g
concentration at 0.5 h [1, 8]: 7780 ± 525 ng/g
concentration at 2 h [1, 8]: 2300 ± 281 ng/g
concentration at 6 h [1, 8]: 440 ± 50.4 ng/g
concentration at 24 h ([1]; ICR, mouse, lung, iv, single i.v. 10 mg/kg, 24 h, read-out: Concentration of (+)3C-20, Lung): 23.8 ± 9.4 ng/g
concentration at 0.5 h [1, 9]: 1450 ± 79.6 ng/g
concentration at 2 h [1, 9]: 595 ± 192 ng/g
concentration at 6 h [1, 9]: 98.7 ± 60 ng/g
lung tissue/plasma ratio in various organs ([1]; i.v. 10 mg kg^−1): highest
AUMC0-inf ([1]; single i.v. 10 mg/kg, Blood): 15950.5 h·h·ng·mL^-1
AUMC0-t ([1]; single i.v. 10 mg/kg, Blood): 11638.5 h·h·ng·mL^-1
MRTIV ([1]; single i.v. 10 mg/kg, Blood): 4.425 h
Tissues/plasma ratio ([1]; single i.v. 10 mg/kg, Blood): 0.734
AUMC0-inf ([1]; single i.v. 10 mg/kg, Brain): 19922 h·h·ng·mL^-1
AUMC0-t ([1]; single i.v. 10 mg/kg, Brain): 14234 h·h·ng·mL^-1
MRTIV ([1]; single i.v. 10 mg/kg, Brain): 6.3 h
AUMC0-inf ([1]; single i.v. 10 mg/kg, Heart): 12176 h·h·ng·mL^-1
AUMC0-t ([1]; single i.v. 10 mg/kg, Heart): 10724 h·h·ng·mL^-1
MRTIV ([1]; single i.v. 10 mg/kg, Heart): 1.2 h
AUMC0-inf ([1]; single i.v. 10 mg/kg, Kidney): 6846 h·h·ng·mL^-1
AUMC0-t ([1]; single i.v. 10 mg/kg, Kidney): 5185 h·h·ng·mL^-1
MRTIV ([1]; single i.v. 10 mg/kg, Kidney): 1.72 h
AUMC0-inf ([1]; single i.v. 10 mg/kg, Liver): 26259 h·h·ng·mL^-1
AUMC0-t ([1]; single i.v. 10 mg/kg, Liver): 21734 h·h·ng·mL^-1
MRTIV ([1]; single i.v. 10 mg/kg, Liver): 1.69 h
AUMC0-inf ([1]; single i.v. 10 mg/kg, Lung): 54321 h·h·ng·mL^-1
AUMC0-t ([1]; single i.v. 10 mg/kg, Lung): 50741 h·h·ng·mL^-1
MRTIV ([1]; single i.v. 10 mg/kg, Lung): 2.45 h
AUMC0-inf ([1]; single i.v. 10 mg/kg, Plasma): 13980 h·h·ng·mL^-1
AUMC0-t ([1]; single i.v. 10 mg/kg, Plasma): 11982 h·h·ng·mL^-1
MRTIV ([1]; single i.v. 10 mg/kg, Plasma): 2.91 h
AUMC0-inf ([1]; single i.v. 10 mg/kg, Spleen): 12590 h·h·ng·mL^-1
AUMC0-t ([1]; single i.v. 10 mg/kg, Spleen): 10456 h·h·ng·mL^-1
MRTIV ([1]; single i.v. 10 mg/kg, Spleen): 1.28 h
increase in cytosolic mtDNA caused by LPS [2]: significantly inhibited
cytosolic mtDNA release [3]: markedly reduced
